The results in this text go back to publication PMC7913925, “Design and Evaluation of a Polypeptide That Mimics the Integrin Binding Site for EDA Fibronectin to Block Profibrotic Cell Activity” (International Journal of Molecular Sciences, 2021).

In assay [1] the test system is EDA-FN in fixed fibroblast or myofibroblast ECM. Briefly: Competitive labelling of fixed matrices, AF38Pep-Cy5 and IST-9. It counts as cell-based. The procedure: (§1) A solution containing 1:1 molar ratio of AF38Pep to non-sulphated Cy5-NHS-ester (APExBIO, Houston, TX, USA) was incubated overnight in RT, shielded from light and under constant mixing. The following day, the solution was passed through a PD-10 Sephadex G-25 M gel filtration column (GE Healthcare, Chicago, IL, USA) into PBS. The first 3 fractions (highest molecular weight) were collected, dialyzed (membrane MWCO 1 kDa) against ddH2O overnight, and concentrated by vacuum centrifuge at 3000 rpm at 60 °C for 3 h. Fibroblasts were grown to 70% confluence in 12-well tissue culture plates, before growth arrest in serum-free DMEM for 48 h. Cells were then treated with 10 ng/mL TGF-β1 for 0, 24, 48 and 72 h. The conjugated AF38Pep-Cy5 was added to the plate wells at 10 µg/mL and was incubated for 2 h. The culture medium was removed, and cells were washed three times with PBS before replenishment with fresh serum-free DMEM. Any AF38Pep-Cy5 that remained bound to EDA-FN was assessed using an IVIS imaging system (Caliper Life Sciences, PerkinElmer, Hopkinton, MA, USA) set to detect Cy5.5 epifluorescence after excitation at 640 nm. Epifluorescence was quantified using Living Image v4.2 analysis software (Caliper Life Sciences).
Cells were grown to 40% confluence in 8-well glass chamber slides (Nunc, Thermo Fisher Scientific), prior to growth arrest and treatment. Cells were washed with PBS before fixation in 4% paraformaldehyde for 10 min at room temperature. Next, cells were permeabilized with 0.1% (v/v) Triton X-100 in PBS for 10 min at room temperature. For visualization of ECM, cells were fixed with 100% ice-cold methanol for 8 min at −20 °C. Slides were washed with PBS and blocked with 1% goat serum (TBD Science, Tianjin, China) for 30 min before washing with 0.1% (w/v) BSA in PBS. […] Cells were then mounted in DAPI Fluoromount-G (Thermo Fisher Scientific) and imaged using a Zeiss Axio Imager Z1 UV fluorescence microscope (Zeiss, Jena, Germany) and a Leica TCS SP5 laser scanning confocal microscope (Leica Biosystems, Baden-Württemberg, Germany).

The test system of assay [2] is EDA-FN ECM of TGF-β1-treated fibroblasts. Put plainly: Epifluorescence assay of AF38Pep-Cy5 binding to fibrotic ECM (IVIS). It is filed as cell-based. The settings on record: AF38Pep-Cy5 10 µg/mL. The procedure: as §1
The test system of assay [3] is fixed ECM of fibroblasts or differentiated myofibroblasts. Briefly: AF38Pep-Cy5 labelling of ECM vs FN1 immunostaining. It is filed as cell-based. As to the method: as §1, with “Cells were then treated with 10 ng/mL TGF-β1 for 0, 24, 48 and 72 h. The conjugated AF38Pep-Cy5 was added to the plate wells at 10 µg/mL and was incubated for 2 h. The culture medium was removed, and cells were washed three times with PBS before replenishment with fresh serum-free DMEM.” left out
Cells were grown to 40% confluence in 8-well glass chamber slides (Nunc, Thermo Fisher Scientific), prior to growth arrest and treatment. […] Cells were then mounted in DAPI Fluoromount-G (Thermo Fisher Scientific) and imaged using a Zeiss Axio Imager Z1 UV fluorescence microscope (Zeiss, Jena, Germany) and a Leica TCS SP5 laser scanning confocal microscope (Leica Biosystems, Baden-Württemberg, Germany).

Assay [4] addresses integrin α4 protein (ITGA4) (not stated (endogenous in fibroblasts; mouse NIH/3T3 and human HFL1 cells were cultured)) (UniProt Q00651). The settings on record: scale: % of that observed in cells that only received TGF-β1 treatment.
Assay [5] concerns the target T1, antifibrotic 38-amino-acid polypeptide (AF38Pep) (disulfide bridge between the two cysteines).
T1 construct: two stretches derived from integrins β1 and α4, linked by a serine; Design contains the ISTTPAK motif of integrin β1/β7 and the KNENKI motif of integrin α4; source: synthetic peptide (ChinaPeptides)
T1 peptide: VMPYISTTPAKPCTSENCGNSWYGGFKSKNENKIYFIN
Put plainly: ITC; 15 µM AF38Pep in the chamber well, 300 µM small peptide in the injection needle; 25 °C; HEPES buffered saline (140 mM NaCl, 1.5 mM Na2HPO4, 50 mM HEPES; pH 7); MicroCal iTC200; one set of sites model with number of binding sites assumed to be 1. The settings on record: both partners purified.

In assay [6] the target is T2, FN-EDA, a peptide sharing amino acid sequence with the C-C′ loop of EDA-FN.
T2 peptide: TYSSPEDGIHEL
Briefly: ITC.

Assay [7] addresses T2, FN-EDA, a peptide sharing amino acid …. Put plainly: ITC.

Bridges are numbered along the chain shown (N, C = ends). Where no end group is shown, it is not given here.

Sequence of integrin α4 protein (ITGA4) (not stated (endogenous in fibroblasts; mouse NIH/3T3 and human HFL1 cells were cultured)) (Q00651 41-1039): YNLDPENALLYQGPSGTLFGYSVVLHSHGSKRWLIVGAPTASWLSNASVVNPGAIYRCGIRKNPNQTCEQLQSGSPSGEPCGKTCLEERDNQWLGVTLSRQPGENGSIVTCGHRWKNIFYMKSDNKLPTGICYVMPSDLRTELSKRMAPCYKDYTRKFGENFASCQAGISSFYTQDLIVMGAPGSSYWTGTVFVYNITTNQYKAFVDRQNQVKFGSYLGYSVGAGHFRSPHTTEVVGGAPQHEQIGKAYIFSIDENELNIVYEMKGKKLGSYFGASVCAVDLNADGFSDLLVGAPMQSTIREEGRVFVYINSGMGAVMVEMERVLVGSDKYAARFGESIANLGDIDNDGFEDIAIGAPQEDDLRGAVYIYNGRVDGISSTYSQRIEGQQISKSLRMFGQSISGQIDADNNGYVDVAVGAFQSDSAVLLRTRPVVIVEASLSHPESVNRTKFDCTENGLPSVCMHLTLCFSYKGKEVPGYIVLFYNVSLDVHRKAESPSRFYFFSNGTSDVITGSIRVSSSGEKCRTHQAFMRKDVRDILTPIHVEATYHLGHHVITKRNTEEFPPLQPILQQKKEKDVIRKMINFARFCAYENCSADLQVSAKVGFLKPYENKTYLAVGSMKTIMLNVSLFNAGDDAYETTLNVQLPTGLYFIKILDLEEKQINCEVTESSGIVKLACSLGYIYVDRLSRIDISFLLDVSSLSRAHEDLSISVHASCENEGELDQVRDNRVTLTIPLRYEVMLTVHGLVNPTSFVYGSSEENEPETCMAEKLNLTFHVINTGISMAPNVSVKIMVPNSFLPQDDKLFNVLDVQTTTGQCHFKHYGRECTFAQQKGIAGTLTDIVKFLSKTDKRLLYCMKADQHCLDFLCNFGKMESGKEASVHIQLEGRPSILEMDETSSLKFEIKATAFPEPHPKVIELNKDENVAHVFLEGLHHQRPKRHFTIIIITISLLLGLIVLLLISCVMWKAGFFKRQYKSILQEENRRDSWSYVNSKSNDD

In the case of “AF38Pep-Cy5: AF38Pep conjugated to Cy5 dye (non-sulphated Cy5-NHS-ester) (VMPYISTTPAKPCTSENCGNSWYGGFKSKNENKIYFIN; disulfide 13-18 (inferred); also: Cy5 label, site not given here)”, the “staining of fibroblast matrices, IST-9 or AF38Pep-Cy5” value in assay [1] (fibroblasts, regardless of the order of addition) is reported as “minimal, regardless of the order of addition to cells”. Besides, the “blocking of IST-9 staining by AF38Pep-Cy5 pretreatment” value in assay [1] (myofibroblasts, AF38Pep-Cy5 first, then IST-9) is “pre-treatment blocked IST-9 staining”. In addition, the “labelling of EDA-FN after IST-9 pretreatment” value in assay [1] (myofibroblasts, IST-9 first, then AF38Pep-Cy5) is “failed to label the elevated EDA-FN production”. Besides, the “binding to fibrotic ECM with TGF-β1 treatment time” value in assay [2] (TGF-β1 10 ng/mL for 24, 48, 72 h) is “increased binding of AF38Pep to the fibrotic ECM, which correlated with the increasing time of TGF-β1 treatment”. For the same molecule, the “binding at 48 h vs 0 h TGF-β1 treatment” value in assay [2] (mean ± S.E., three experiments) was “significant increases in binding at 48 h”. Further, in assay [3] (differentiated myofibroblasts), the “AF38Pep-Cy5 colocalization with FN1 staining, myofibroblast ECM” value is given as “colocalization with anti-FN1 staining (yellow) was prominent in areas of fibronectin deposition at cell membranes”. Further, the “AF38Pep-Cy5 staining of fibroblast ECM” value in assay [3] (untreated control fibroblasts) is on record as “little to no staining”.

As to “extra domain A containing fibronectin (EDA-FN) (from UniProt P11276 33-2477) (natural protein)”, the total collagen synthesis (hydroxyproline assay) of NIH/3T3 cells after 48 h of TGF-β1 with AF38Pep as blocker, relative to TGF-β1 alone in assay [4] stood at 60.

B1: FN-EDA, a peptide sharing amino acid sequence with the C-C′ loop of EDA-FN (peptide)
peptide: TYSSPEDGIHEL
notes: 12-residue stretch of the C-C′ loop of extra domain A (EDA) of fibronectin; also called fibronectin EDA-peptide; EDA-FN C-C′ loop peptide; source: synthetic peptide (ChinaPeptides)
For B1, the binding result in assay [5] is recorded as “binds”.

The molecule VMPYISTTPAKPCTSENCGNSWYGGFKSKNENKIYFIN (designed binder, disulfide 13-18 (inferred)) [antifibrotic 38-amino-acid polypeptide (AF38Pep)] gave a Kd in assay [6] of 858 nM. This molecule came in with a Ka in assay [7] of 1.11e+06 M⁻¹.
